Experiments:
[1] = tested on: paclitaxel-resistant SKBR-3 breast cancer cell line; assay: MTT assay, paclitaxel-resistant SKBR-3; type: cell-based; conditions: Homo sapiens, SK-BR-3, paclitaxel-resistant SKBR-3, 24 h treatment (21 h + 3 h MTT); read-out: IC50, cell viability (MTT)
Protocol: (§1) The human breast cancer cell lines SKBR-3 and paclitaxel-resistant SKBR-3 were kindly provided by Marc St. George (University of Alberta, Canada). Both cell lines were grown in RPMI 1640 medium (GIBCO) with 10% fetal calf serum and 1 mM L-glutamine 1% penicillin/streptomycin mixture under a humidified atmosphere containing 5% CO2. Addition of 16.65 nM paclitaxel to the paclitaxel-resistant cell line is mandatory to keep the acquired resistance at the same efficiency level.
(§2) The human breast cancer cell lines SKBR-3 and paclitaxel-resistant SKBR-3 (1 × 10^4 cells per well) were seeded into 96-well plates. […] After 21 h incubation, 50 μL of MTT (1 mg/mL) solution was added and the plates were incubated for an additional 3 h. After centrifugation, supernatant was removed from each well and […] of dimethyl sulfoxide (DMSO) was added to dissolve the insoluble formazan crystals. The absorbance was measured at 570 nm and 690 nm subtracted as a background, using microplate reader. The data was plotted using GraphPad Prism 5.0 software. IC50 and statistical analysis (t-test) were calculated using the same software.

tubulin = assay: Microtubule assembly assay (turbidity); type: biochemical; conditions: 10 μM compound, tubulin 3 mg/mL, 37°C, turbidity at 340 nm
Protocol: The turbidity was recorded on 96-half area well plates by microplate reader at 340 nm as an indicator for microtubules formation. […] Tubulin at a concentration of 3mg/mL in tubulin buffer (80 mM PIPES pH 6.9, 2 mM MgCl2, 0.5 mM EGTA, 1 mM GTP, 10.2% glycerol) was kept at 4°C before being added to the wells and shifting to 37°C. The absorbance was measured using the kinetic absorbance mode. DMSO solutions of paclitaxel and colchicine (10 μM) were used as controls.

[2] = tested on: SKBR-3 breast cancer cell line; assay: MTT assay, SKBR-3; type: cell-based; conditions: Homo sapiens, SK-BR-3; SKBR-3, 24 h treatment (21 h + 3 h MTT); read-out: IC50, cell viability (MTT)
Protocol: as §1, §2

αI,βI-tubulin = molecular target: T1, αI,βI-tubulin (Homo sapiens, UniProt P07437+Q71U36); assay: Tryptophan fluorescence quenching binding assay, recombinant αI,βI-tubulin heterodimer; conditions: dissociation constant, calculated
T1 construct: made in house; host or cells: E. coli BL21 (DE3)
Protocol: (§3) The protein sequence of human αI-tubulin is given by UniProtKB accession number Q71U36 (gene name TUBA1A), the protein sequence of human βI-tubulin is given by UniProtKB accession number P07437 (gene name TUBB) and that of human βIII-tubulin is given by UniProtKB accession number Q13509 (gene name TUBB3). The cloning work for αI- and βI-tubulin was performed and reported previously. For the βIII human tubulin protein, the sequence was converted into DNA sequences with codons optimized for production in Escherichia coli, and for purification purposes, a His-tag was added at the N-terminus. The βIII-tubulin gene was inserted into a pET15b vector between the XhoI and NdeI restriction sites. The correct sequence, insertion, and orientation of the tubulin constructs were verified by DNA sequencing. Recombinant proteins were expressed in E. coli BL21 (DE3) host cells in LB medium supplemented with 100 μg/mL ampicillin. The cultures were grown at 37°C until an OD600 = 0.8 was reached, and the cells were induced with 1.0 mM isopropyl b-D-1-thiogalactopyranoside (IPTG) for 18 h at 25°C. After induction, the cells were harvested by centrifugation (6000 × g for 20 min at 4°C in SLC-6000 evolution sorvall rotor). The three variants of the tubulin protein were isolated from the inclusion bodies. […]

βI,βI-tubulin = molecular target: T2, βI,βI-tubulin (Homo sapiens, UniProt P07437); assay: Tryptophan fluorescence quenching binding assay, recombinant βI,βI-tubulin homodimer; conditions: dissociation constant, calculated
T2 construct: made in house; host or cells: E. coli BL21 (DE3)
Protocol: as §3

[3] = molecular target: Porcine brain tubulin (unfractionated); assay: Tryptophan fluorescence quenching binding assay, porcine brain tubulin; conditions: dissociation constant, calculated
αI,βIII-tubulin = molecular target: T3, αI,βIII-tubulin (Homo sapiens, UniProt Q13509+Q71U36); assay: Tryptophan fluorescence quenching binding assay, recombinant αI,βIII-tubulin heterodimer; conditions: dissociation constant, calculated
T3 construct: His-tag (N); made in house; host or cells: E. coli BL21 (DE3)
Protocol: as §3

T2 sequence (P07437 whole entry): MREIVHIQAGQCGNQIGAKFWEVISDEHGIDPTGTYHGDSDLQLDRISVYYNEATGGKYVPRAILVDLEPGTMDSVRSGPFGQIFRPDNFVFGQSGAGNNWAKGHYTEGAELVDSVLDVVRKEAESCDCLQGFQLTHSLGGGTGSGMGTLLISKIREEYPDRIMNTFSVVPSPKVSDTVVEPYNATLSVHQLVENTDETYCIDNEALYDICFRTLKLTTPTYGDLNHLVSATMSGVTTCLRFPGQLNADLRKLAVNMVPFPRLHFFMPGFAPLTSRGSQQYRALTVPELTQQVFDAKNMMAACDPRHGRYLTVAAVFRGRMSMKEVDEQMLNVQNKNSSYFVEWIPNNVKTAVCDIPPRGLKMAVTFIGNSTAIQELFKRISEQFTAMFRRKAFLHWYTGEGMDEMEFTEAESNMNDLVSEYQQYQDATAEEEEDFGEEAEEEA
T3 sequence (Q71U36 whole entry): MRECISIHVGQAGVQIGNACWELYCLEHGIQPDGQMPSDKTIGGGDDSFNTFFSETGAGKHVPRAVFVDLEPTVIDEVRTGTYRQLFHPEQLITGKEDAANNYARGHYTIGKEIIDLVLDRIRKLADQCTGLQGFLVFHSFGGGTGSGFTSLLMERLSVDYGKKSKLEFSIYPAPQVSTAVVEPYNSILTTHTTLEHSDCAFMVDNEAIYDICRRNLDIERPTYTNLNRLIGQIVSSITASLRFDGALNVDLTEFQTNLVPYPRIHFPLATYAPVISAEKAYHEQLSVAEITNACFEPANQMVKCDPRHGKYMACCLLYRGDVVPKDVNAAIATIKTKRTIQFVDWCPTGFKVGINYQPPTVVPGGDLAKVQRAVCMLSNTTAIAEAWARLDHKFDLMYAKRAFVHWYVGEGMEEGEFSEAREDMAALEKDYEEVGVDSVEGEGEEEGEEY
T3 sequence (Q13509 whole entry): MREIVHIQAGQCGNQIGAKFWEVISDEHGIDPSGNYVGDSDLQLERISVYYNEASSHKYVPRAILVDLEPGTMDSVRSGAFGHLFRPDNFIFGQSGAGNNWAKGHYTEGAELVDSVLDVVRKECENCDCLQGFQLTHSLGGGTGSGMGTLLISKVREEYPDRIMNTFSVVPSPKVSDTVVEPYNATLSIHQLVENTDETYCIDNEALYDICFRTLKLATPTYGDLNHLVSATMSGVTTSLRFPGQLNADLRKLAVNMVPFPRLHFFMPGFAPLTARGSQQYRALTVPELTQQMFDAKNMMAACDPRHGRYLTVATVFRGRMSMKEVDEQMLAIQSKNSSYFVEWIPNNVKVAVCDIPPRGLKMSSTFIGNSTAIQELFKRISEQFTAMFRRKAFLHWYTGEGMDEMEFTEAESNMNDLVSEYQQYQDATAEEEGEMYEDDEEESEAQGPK
T1 sequence (Q71U36 whole entry): as the sequence (Q71U36 whole entry) above
T1 sequence (P07437 whole entry): as the sequence (P07437 whole entry) above

Row | SMILES | IC50 [1] | Effect on MT polymerization (tubulin) | IC50 [2] | Kd (αI,βI-tubulin) | Kd (βI,βI-tubulin) | Kd [3] | Kd (αI,βIII-tubulin)
1 | COc1ccc2c(c1OC)C(=O)O/C2=C\c1ccc2c(c1)OCO2 [Compound 8, (Z)-3-(benzo[d][1,3]dioxol-5-ylmethylene)-6,7-dimethoxyisobenzofuran-1(3H)-one] | ~64 µM | destabilize MT | ~40 µM | – | – | – | –
2 | COc1ccc2c(c1OC)C(=O)O[C@@H]2[C@H]1c2c(cc3c(c2OC)OCO3)CCN1C [Noscapine] | ~100 µM | stabilize MT | ~100 µM | 293 µM | 426 µM | 265 µM | 289 µM
